Test results as given in US20200297621A1, “Topical Compositions for Neuropathic Pain” (GOOD PHARMACEUTICAL DEVELOPMENT COMPANY, LLC, priority 2016, published 2020).
Several values for one entry are separate records, joined by “and”; a condition that tells them apart may be missing. Equal values may be shown once.

Test: Stability testing of the topical gabapentin/ketamine composition
Format: physicochemical
Set-up: Assay: unit not given beside the values
Details: for Assay (avg): avg of the two determinations; for Assay: single determinations

| Structure (SMILES) | Assay (avg) (2 wk, 25/60) | Assay (2 wk, 25/60) | Assay (avg) (2 wk, 40/75) | Assay (2 wk, 40/75) | Assay (avg) (t = 0) | Assay (t = 0) | Assay (2 wk, 25/60, acetic acid) | Assay (2 wk, 40/75, acetic acid) | Assay (t = 0, acetic acid) |
| --- | --- | --- | --- | --- | --- | --- | --- | --- | --- |
| CNC1(c2ccccc2Cl)CCCCC1=O.Cl (racemic) [Ketamine HCl, (±) 2-(o-chlorophenyl)-2-(methylamino)-cyclohexanone] | 105.8 | 105.9 and 105.7 | 105.2 | 105.2 | 106.3 | 108.8 and 103.9 |  |  |  |
| NCC1(CC(=O)O)CCCCC1 [Gabapentin, 1-(aminomethyl)cyclohexane acetic acid] | 106.6 |  | 105.8 |  | 111.3 |  | 105.4 and 107.8 | 106.1 and 105.5 | 111.9 and 110.7 |
| COC(=O)c1ccc(O)cc1 [Methylparaben] | 106.1 | 108.2 and 104.1 | 108.1 | 109.6 and 106.7 | 112.0 | 111.1 and 112.9 |  |  |  |
